For the assay, the system named is Caco-2 cells. As to the kind of experiment: Lactate dehydrogenase leakage (LDH) assay. Type of assay: cell-based, Human. The conditions noted are these: 3 h incubation, mean ± S.D., n = 4, read-out: IC50 (viability of Caco-2 cells, LDH assay). The protocol: Human intestinal adenocarcinoma cells (Caco-2) (passage 110–120) were seeded at 10,000 cells/well in 96-well plates and maintained at 37 °C in an atmosphere of 5% CO2 and 95% relative humidity in Dulbecco’s Modified Eagle’s Medium (DMEM) supplemented with 1% foetal bovine serum, 1% non-essential amino acids, 50 IU/mL penicillin. and […] streptomycin. After 24 h the medium was removed and the cells were washed in phosphate buffered saline and 200 µL Hanks Balanced Salt Solution (HBSS) containing G3 PAMAM dendrimer, conjugates or G0 PAMAM dendrimer at different concentrations (concentrations were calculated using the average molecular weight (Table 1) for each conjugate as a whole macromolecule). Caco-2 cell monolayers were also treated with blank HBSS and 1% Triton X-100 as low and high controls, respectively. After 3 h of incubation at 37 °C, 100 µL/well supernatant was removed carefully and transferred into corresponding wells of an optically clear 96-well flat bottom microplate. LDH leakage in the compartment was quantified using an LDH assay kit.
The percentage was calculated using the following equation:Cytotoxicity (%) = ((exp. − low control)/(high control − low control)) × 100 where exp. is the experimental value.

For the substance “lauroyl-G0-diethylene glycol-naproxen [L-G0-deg-NAP]”, the IC50 came to 3.18 ± 0.455 mM.
